Reference: patent publication US20250333431A1, “NEW CRYSTAL FORM OF TRISACCHARIDE” (SHANDONG HENGLU BIOTECH. CO., LTD., priority 2022, published 2025)

Experiments:
[1] = Moisture absorption measurement in a Constant Temperature & Humidity Chamber; assay type: physicochemical; details: for Moisture absorption rate, % / Weight gain after moisture absorption: after 5 days; for Weight gain after moisture absorption: about 1 g sample; for Appearance before experiment: before placing in chamber, open glass culture dish
Method: On the day before the constant temperature and moisture test, two dry glass culture dishes (without covers) are taken and placed in a Constant Temperature & Humidity Chamber at 25±1° C. and relative humidity of 75±2% for 4 h. The processed dishes are taken out and weighed accurately. The experiment is repeated until the weight is constant, and the data is recorded in Table 3.
Step 2. The raw material LNTII solid amorphous powder and the crystalline form B of LNTII obtained from Example 1 are weighed separately, placed in a glass culture dish without cover with constant weight in Step 1. The culture dish with samples added are placed in a Constant Temperature & Humidity Chamber at 25° C. and relative humidity of 75%. After 5 days, the samples are taken out to observe the appearance changes, weigh, and calculate the moisture absorption. The results are recorded in Table 2 and Table 3, respectively. The results of samples morphology before and after moisture absorption are shown in FIG. 5 and FIG. 6, respectively.
According to the method described herein in Example 9, the crystalline form B of LNTII prepared according to Examples 1-8 is placed in a glass culture dish without cover with constant weight in Step 1. The culture dish with samples added are placed in a Constant Temperature & Humidity Chamber at 25° C. and relative humidity of 75%. After 5 days, the samples are taken out to observe the appearance changes, weigh, and calculate the moisture absorption.

[2] = Stability study in a Constant Temperature & Humidity Chamber (LNTII content by HPLC and appearance); assay type: physicochemical; details: for Content, % (At the end of the 1st month): sealed with aluminum compound packing film; for Content, % (At the end of the 1st month) / Appearance (At the end of the 1st month): 1 month; for Appearance (At the end of the 1st month) / Content, % (At the end of the 2nd month) / Appearance (At the end of the 3rd month) / Content, % (At the end of the 3rd month): sealed; for Content, % (At the end of the 2nd month): 2 months; for Content, % (Day 0): LNTII content by HPLC
Method: In this invention, high-performance liquid chromatography (HPLC) is used to detect the content of LNTII under the following detection conditions:
Chromatographic column: Asahipak NH2P-504E 4.6 mm×250 mm, 5 μm, mobile phase: acetonitrile: water=65:35, flow rate: 1 mL/min, detector: UV-VIS detector, wavelength: 210 nm, column temperature: 30° C., sample volume: 10 μL, and the running time of 30 min.
An amount of 10 g of raw material before crystallization (i.e. LNTII amorphous powder obtained by spray-drying) and 10 g of crystalline form B of LNTII prepared by the method described herein in Examples 1-8 are weighed respectively, sealed with aluminum compound packing film, and placed in a Constant Temperature & Humidity Chamber under the test conditions of at constant temperature of 40° C. and relative humidity of 75%. Samples are taken at the end of the 1st month, the 2nd month, and the 3rd month to test the content of LNTII and observe its appearance.

[3] = 25° C., relative humidity 75%, Table 4, Examples 1-8
[4] = 40° C., relative humidity 75%, 3 months
[5] = 25° C., relative humidity 75%, Table 3, (weight gain/sample weight) × 100%

| Structure (SMILES) | Moisture absorption rate, % [1, 3] | Content, % (At the end of the 1st month) ([2]; 40° C., relative humidity 75%) | Appearance (At the end of the 1st month) ([2]; 40° C., relative humidity 75%) | Content, % (At the end of the 2nd month) ([2]; 40° C., relative humidity 75%) | Appearance (At the end of the 3rd month) [2, 4] | Content, % (At the end of the 3rd month) [2, 4] | Content, % (Day 0) [2] | Stability compared with amorphous powder (from appearance and moisture absorption) ([1]; 25° C., relative humidity 75%, 5 days, conclusion from Tables 2 and 3) | Moisture absorption rate, % [1, 5] | Weight gain after moisture absorption ([1]; 25° C., relative humidity 75%) | Appearance before experiment [1] | Change of LNTII content during the stability experiment [2, 4] | Change of appearance/color during the stability experiment [2, 4] |
| --- | --- | --- | --- | --- | --- | --- | --- | --- | --- | --- | --- | --- | --- |
| CC(=O)NC1C(O)[C@H](O)C(CO)O[C@H]1OC1C(O)[C@H](O[C@@H]2C(CO)OC(O)C(O)C2O)OC(CO)[C@@H]1O (single isomer, unassigned) [Crystalline form B in Example 1, Lacto-N-triose II] | 14.02% | 96.81% | Off-white | 96.78% | Off-white | 96.76% | 96.8% | – | – | – | – | – | – |
| CC(=O)NC1C(O)[C@H](O)C(CO)O[C@H]1OC1C(O)[C@H](O[C@@H]2C(CO)OC(O)C(O)C2O)OC(CO)[C@@H]1O (single isomer, unassigned) [Crystalline form B in Example 2, Lacto-N-triose II] | 14.36% | 96.44% | Off-white | 96.42% | Off-white | 96.38% | 96.5% | – | – | – | – | – | – |
| CC(=O)NC1C(O)[C@H](O)C(CO)O[C@H]1OC1C(O)[C@H](O[C@@H]2C(CO)OC(O)C(O)C2O)OC(CO)[C@@H]1O (single isomer, unassigned) [Crystalline form B in Example 3, Lacto-N-triose II] | 13.57% | 96.92% | Off-white | 96.93% | Off-white | 96.84% | 96.9% | – | – | – | – | – | – |
| CC(=O)NC1C(O)[C@H](O)C(CO)O[C@H]1OC1C(O)[C@H](O[C@@H]2C(CO)OC(O)C(O)C2O)OC(CO)[C@@H]1O (single isomer, unassigned) [Crystalline form B in Example 4, Lacto-N-triose II] | 13.81% | 96.13% | Off-white | 96.06% | Off-white | 96.07% | 96.1% | – | – | – | – | – | – |
| CC(=O)NC1C(O)[C@H](O)C(CO)O[C@H]1OC1C(O)[C@H](O[C@@H]2C(CO)OC(O)C(O)C2O)OC(CO)[C@@H]1O (single isomer, unassigned) [Crystalline form B in Example 5, Lacto-N-triose II] | 13.79% | 93.56% | Off-white | 93.48% | Off-white | 93.34% | 93.4% | – | – | – | – | – | – |
| CC(=O)NC1C(O)[C@H](O)C(CO)O[C@H]1OC1C(O)[C@H](O[C@@H]2C(CO)OC(O)C(O)C2O)OC(CO)[C@@H]1O (single isomer, unassigned) [Crystalline form B in Example 6, Lacto-N-triose II] | 13.32% | 92.43% | Off-white | 92.39% | Off-white | 92.31% | 92.4% | – | – | – | – | – | – |
| CC(=O)NC1C(O)[C@H](O)C(CO)O[C@H]1OC1C(O)[C@H](O[C@@H]2C(CO)OC(O)C(O)C2O)OC(CO)[C@@H]1O (single isomer, unassigned) [Crystalline form B in Example 7, Lacto-N-triose II] | 13.04% | 93.77% | Off-white | 93.81% | Off-white | 93.75% | 93.8% | – | – | – | – | – | – |
| CC(=O)NC1C(O)[C@H](O)C(CO)O[C@H]1OC1C(O)[C@H](O[C@@H]2C(CO)OC(O)C(O)C2O)OC(CO)[C@@H]1O (single isomer, unassigned) [Crystalline form B in Example 8, Lacto-N-triose II] | 13.61% | 96.48% | Off-white | 96.49% | Off-white | 96.46% | 96.5% | – | – | – | – | – | – |
| CC(=O)NC1C(O)[C@H](O)C(CO)O[C@H]1OC1C(O)[C@H](O[C@@H]2C(CO)OC(O)C(O)C2O)OC(CO)[C@@H]1O (stereo partly shown) [Crystalline form B of LNTII, Lacto-N-triose II] | – | – | – | – | – | – | – | better than that of amorphous powder | 16.16% | 0.1617 | Off-white | – | – |
| CC(=O)NC1C(O)[C@H](O)C(CO)O[C@H]1OC1C(O)[C@H](O[C@@H]2C(CO)OC(O)C(O)C2O)OC(CO)[C@@H]1O (stereo partly shown) [LNTII amorphous powder, Lacto-N-triose II, reference compound] | – | 91.01% | Off-white | 90.86% | – | 90.01% | 91.24% | – | 29.47% | 0.2951 | Off-white powder | showed a decreasing trend | gradually changed to faint yellow |
